Source: patent publication US20100152434A1, “Protein Kinase-binding Nucleosides and Associated Methods” (priority 2007, published 2010)
Read-outs that look alike come from different tables or passages of the source.

Assays:
CCRF-CEM [1] = tested on: CCRF-CEM
EKVX [2] = tested on: EKVX
HOP-62 = conditions: HOP-62
HCC-2998 = conditions: HCC-2998
SF-268 [3] = tested on: SF-268
LOX IMVI [4] = tested on: LOX IMVI
788-0 [5] = conditions: 786-0
RXF 393 = conditions: RXF 393
CCRF-CEM [6] = test: cells; conditions: Homo sapiens
EKVX [7] = test: cells; conditions: Homo sapiens
COLO 205 = test: cells; conditions: Homo sapiens
SF-268 [8] = test: cells; conditions: Homo sapiens
SF-539 = test: cells; conditions: Homo sapiens
LOX IMVI [9] = test: cells; conditions: Homo sapiens
SK-MEL-5 = test: cells; conditions: Homo sapiens
OVCAR-3 = test: cells; conditions: Homo sapiens
OVCAR-8 = test: cells; conditions: Homo sapiens
788-0 [10] = test: cells; conditions: Homo sapiens, 786-0
SN12C = test: cells; conditions: Homo sapiens
UO-31 = test: cells; conditions: Homo sapiens
MCF7 = test: cells; conditions: Homo sapiens

CNC(=O)NC[C@H]1O[C@@H](n2cnc3c(NC(=O)Nc4ccccc4)ncnc32)[C@H](O[Si](C)(C)C(C)(C)C)[C@@H]1CC(=O)N(C)OC [Compound 13, 2′-O-(tert-Butyldimethylsilyl)-3′,5′-dideoxy-3′-[(N-methoxy-N-methylcarboxamido)methyl]-5′-[(N-methylcarbamoyl)amino]-N^6-(N-phenylcarbamoyl)adenosine]
TGI (CCRF-CEM [1]): >1.00E−4 Molar | Percent Growth (CCRF-CEM [1]; Log10 Concentration −4.0): 23% | Percent Growth (CCRF-CEM [1]; Log10 Concentration −5.0): 39% | Percent Growth (CCRF-CEM [1]; Log10 Concentration −6.0): 96% | Percent Growth (CCRF-CEM [1]; Log10 Concentration −7.0): 100% | Percent Growth (CCRF-CEM [1]; Log10 Concentration −8.0): 101% | TGI (EKVX [2]): >1.00E−4 Molar | Percent Growth (EKVX [2]; Log10 Concentration −4.0): 36% | Percent Growth (EKVX [2]; Log10 Concentration −5.0): 60% | Percent Growth (EKVX [2]; Log10 Concentration −6.0): 95% | Percent Growth (EKVX [2]; Log10 Concentration −7.0): 95% | Percent Growth (EKVX [2]; Log10 Concentration −8.0): 94% | TGI (HOP-62): >1.00E−4 Molar | Percent Growth (HOP-62; Log10 Concentration −4.0): 28% | Percent Growth (HOP-62; Log10 Concentration −5.0): 64% | Percent Growth (HOP-62; Log10 Concentration −6.0): 86% | Percent Growth (HOP-62; Log10 Concentration −7.0): 88% | Percent Growth (HOP-62; Log10 Concentration −8.0): 92% | TGI (NCI-H226): >1.00E−4 Molar | Percent Growth (NCI-H226; Log10 Concentration −4.0): 40% | Percent Growth (NCI-H226; Log10 Concentration −5.0): 66% | Percent Growth (NCI-H226; Log10 Concentration −6.0): 99% | Percent Growth (NCI-H226; Log10 Concentration −7.0): 111% | Percent Growth (NCI-H226; Log10 Concentration −8.0): 103% | TGI (NCI-H23): >1.00E−4 Molar | Percent Growth (NCI-H23; Log10 Concentration −4.0): 43% | Percent Growth (NCI-H23; Log10 Concentration −5.0): 71% | Percent Growth (NCI-H23; Log10 Concentration −6.0): 99% | Percent Growth (NCI-H23; Log10 Concentration −7.0): 103% | Percent Growth (NCI-H23; Log10 Concentration −8.0): 106% | TGI (HCC-2998): >1.00E−4 Molar | Percent Growth (HCC-2998; Log10 Concentration −4.0): 33% | Percent Growth (HCC-2998; Log10 Concentration −5.0): 66% | Percent Growth (HCC-2998; Log10 Concentration −6.0): 100% | Percent Growth (HCC-2998; Log10 Concentration −7.0): 97% | Percent Growth (HCC-2998; Log10 Concentration −8.0): 102% | TGI (SF-268 [3]): >1.00E−4 Molar | Percent Growth (SF-268 [3]; Log10 Concentration −4.0): 20% | Percent Growth (SF-268 [3]; Log10 Concentration −5.0): 46% | Percent Growth (SF-268 [3]; Log10 Concentration −6.0): 91% | Percent Growth (SF-268 [3]; Log10 Concentration −7.0): 105% | Percent Growth (SF-268 [3]; Log10 Concentration −8.0): 98% | TGI (LOX IMVI [4]): >1.00E−4 Molar | Percent Growth (LOX IMVI [4]; Log10 Concentration −4.0): 35% | Percent Growth (LOX IMVI [4]; Log10 Concentration −5.0): 43% | Percent Growth (LOX IMVI [4]; Log10 Concentration −6.0): 94% | Percent Growth (LOX IMVI [4]; Log10 Concentration −7.0): 96% | Percent Growth (LOX IMVI [4]; Log10 Concentration −8.0): 97% | TGI (MALME-3M): >1.00E−4 Molar | Percent Growth (MALME-3M; Log10 Concentration −4.0): 23% | Percent Growth (MALME-3M; Log10 Concentration −5.0): 52% | Percent Growth (MALME-3M; Log10 Concentration −6.0): 93% | Percent Growth (MALME-3M; Log10 Concentration −7.0): 88% | Percent Growth (MALME-3M; Log10 Concentration −8.0): 103% | TGI (SK-MEL-2): 8.31E−5 Molar | Percent Growth (SK-MEL-2; Log10 Concentration −4.0): −5% | Percent Growth (SK-MEL-2; Log10 Concentration −5.0): 62% | Percent Growth (SK-MEL-2; Log10 Concentration −6.0): 92% | Percent Growth (SK-MEL-2; Log10 Concentration −7.0): 83% | Percent Growth (SK-MEL-2; Log10 Concentration −8.0): 85% | TGI (788-0 [5]): >1.00E−4 Molar | Percent Growth (788-0 [5]; Log10 Concentration −4.0): 8% | Percent Growth (788-0 [5]; Log10 Concentration −5.0): 48% | Percent Growth (788-0 [5]; Log10 Concentration −6.0): 93% | Percent Growth (788-0 [5]; Log10 Concentration −7.0): 92% | Percent Growth (788-0 [5]; Log10 Concentration −8.0): 95% | TGI (CAKI-1): >1.00E−4 Molar | Percent Growth (CAKI-1; Log10 Concentration −4.0): 47% | Percent Growth (CAKI-1; Log10 Concentration −5.0): 57% | Percent Growth (CAKI-1; Log10 Concentration −6.0): 76% | Percent Growth (CAKI-1; Log10 Concentration −7.0): 72% | Percent Growth (CAKI-1; Log10 Concentration −8.0): 85% | TGI (RXF 393): 3.80E−5 Molar | Percent Growth (RXF 393; Log10 Concentration −4.0): −36% | Percent Growth (RXF 393; Log10 Concentration −5.0): 49% | Percent Growth (RXF 393; Log10 Concentration −6.0): 98% | Percent Growth (RXF 393; Log10 Concentration −7.0): 100% | Percent Growth (RXF 393; Log10 Concentration −8.0): 103% | TGI (DU-145): >1.00E−4 Molar | Percent Growth (DU-145; Log10 Concentration −4.0): 16% | Percent Growth (DU-145; Log10 Concentration −5.0): 60% | Percent Growth (DU-145; Log10 Concentration −6.0): 104% | Percent Growth (DU-145; Log10 Concentration −7.0): 112% | Percent Growth (DU-145; Log10 Concentration −8.0): 107% | GI50 (CCRF-CEM [6]): 6.37 µM | CC50 (CCRF-CEM [6]; read-out: LC50): > 100 µM | GI50 (EKVX [7]): 26.4 µM | CC50 (EKVX [7]; read-out: LC50): > 100 µM | GI50 (COLO 205; COLO 205): 12.3 µM | CC50 (COLO 205; COLO 205, read-out: LC50): > 100 µM | GI50 (SF-268 [8]; SF-268): 8.29 µM | CC50 (SF-268 [8]; SF-268, read-out: LC50): > 100 µM | GI50 (SF-539; SF-539): 22.3 µM | CC50 (SF-539; SF-539, read-out: LC50): > 100 µM | GI50 (LOX IMVI [9]): 7.3 µM | CC50 (LOX IMVI [9]; read-out: LC50): > 100 µM | GI50 (SK-MEL-5; SK-MEL-5): 5.81 µM | CC50 (SK-MEL-5; SK-MEL-5, read-out: LC50): > 100 µM | GI50 (OVCAR-3; OVCAR-3): 7.11 µM | CC50 (OVCAR-3; OVCAR-3, read-out: LC50): > 100 µM | GI50 (OVCAR-8; OVCAR-8): 9.02 µM | CC50 (OVCAR-8; OVCAR-8, read-out: LC50): > 100 µM | GI50 (788-0 [10]): 9.01 µM | GI50 (SN12C): 85.3 µM | CC50 (SN12C; read-out: LC50): > 100 µM | GI50 (UO-31; UO-31): 7.79 µM | CC50 (UO-31; UO-31, read-out: LC50): > 100 µM | GI50 (MCF7; MCF7): 5.59 µM | CC50 (MCF7; MCF7, read-out: LC50): > 100 µM
